Here are results for 50 compounds from US20080312435A1, “Imine Compound” (TAISHO PHARMACEUTICAL CO., LTD., priority 2004, published 2008).

In series [1] the target is T1, human CB2 receptor (Homo sapiens, UniProt P34972).
T1 construct: expressed in transfected cells
As to the kind of experiment: Human CB2 receptor binding inhibition test ([3H]CP-55,940, CHO membrane fractions). Particulars: [3H]CP-55,940, membrane fractions of CHO cells stably expressing human CB2 receptor, 25° C., 2 hours; read-out: CB2 IC50 (Inhibition of binding to human CB2 receptor). The text has this:
Human CB2 Receptor Binding Inhibition Test
First, cDNA sequence (Munro et al., Nature, 1993, 365, 61-65) encoding a human CB2 receptor was inserted in the forward direction in an animal-cell expression vector, pTARGET Vector (manufactured by Promega) at a region downstream of a CMV promoter. Host cells CHO-DHFR(−) were transfected with the obtained expression vector with the aid of Lipofectamine (manufactured by Invitrogen) to obtain cells capable of stably expressing the CB2 receptor.
After the filtrate was washed with an assay buffer containing 0.1% bovine serum albumin, the radioactivity on the glass filter was measured by a liquid scintillation counter. Nonspecific binding was measured in the presence of 2.0 μM CP-55,940 (manufactured by Tocris). 50% inhibitory concentration (IC50 value) of the test compound for the specific binding was obtained.

T1 sequence (P34972 whole entry): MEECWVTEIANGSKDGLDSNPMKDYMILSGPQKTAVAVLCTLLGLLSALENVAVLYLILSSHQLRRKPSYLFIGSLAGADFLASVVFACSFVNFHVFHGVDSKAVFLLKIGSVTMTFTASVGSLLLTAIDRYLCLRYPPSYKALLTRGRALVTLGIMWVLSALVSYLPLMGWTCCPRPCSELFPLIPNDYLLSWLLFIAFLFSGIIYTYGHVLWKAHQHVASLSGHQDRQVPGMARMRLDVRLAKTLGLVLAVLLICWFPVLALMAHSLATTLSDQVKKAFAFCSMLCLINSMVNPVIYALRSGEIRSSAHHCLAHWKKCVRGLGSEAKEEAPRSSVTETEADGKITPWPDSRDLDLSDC

As a reminder, the IC50 is the point on the concentration scale where inhibition reaches its midpoint. One may read the melting point as the temperature, or range, at which the solid turns liquid. `Cc1c/c(=N\C(=O)c2cccc(C(F)(F)F)c2F)n(CC2CC2)c(C)c1Br` [compound 46] yielded a melting point of 121 to 122 °C. In series [1], the IC50 came to 1.2 nM.
The corresponding values for `Cc1c(C(C)(C)C)s/c(=N\C(=O)c2c(F)ccc(F)c2F)n1C` [compound 134] are 143 to 145 °C and 6.8 nM.
Compound `Cc1s/c(=N\C(=O)CC2CCCC2)n(CC2CC2)c1C` [compound 100] showed a melting point of 108 to 109 °C. Besides, the IC50 in series [1] came out at 7 nM.
The corresponding values for `Cc1c(C(C)(C)C)s/c(=N\C(=O)c2cc(I)ccc2F)n1CC1CC1` [compound 231] are 95 to 96 °C and 3 nM.
The corresponding values for `CCOc1ccc(C(F)(F)F)cc1C(=O)/N=c1\sc(C(C)(C)C)c(C)n1CC1CC1` [compound 268] are 140 to 142 °C and 1.1 nM.
The compound `CCN(C)c1ccc(C(F)(F)F)cc1C(=O)/N=c1\sc(C(C)(C)C)c(C)n1CC1CC1` [compound 274] gave a melting point of 101 to 103 °C. In addition, the IC50 in series [1] is 13.2 nM.
For the compound `Cc1c(C(C)(C)C)s/c(=N\C(=O)c2ccc(F)c(Cl)c2F)n1CC1CC1` [compound 285], the melting point fell in the range of 76 to 77 °C. Moreover, in series [1], the IC50 is 14.2 nM.
For `Cc1c(C(C)(C)C)s/c(=N\C(=O)C(C)(C)C)n1CC1CC1` [compound 330], the melting point was in the range of 102 to 104 °C. Also, the IC50 in series [1] was found to be 13.8 nM.
Consider `Cc1c(C(C)(C)C)s/c(=N\C(=O)c2ccc([N+](=O)[O-])o2)n1CC1CC1` [compound 319], for which the melting point lay within 129 to 130 °C. The IC50 in series [1] came to 18.6 nM.
`O=C(/N=c1\ccc(Cl)cn1CC1CC1)c1cccc(C(F)(F)F)c1F` [compound 34] returned a melting point of 117 to 119 °C. Also, the IC50 in series [1] was 6.6 nM.
In the same order, the values of `Cc1s/c(=N\C(=O)c2c(F)cccc2C(F)(F)F)n(CC2CC2)c1C` [compound 94] are 111 to 113 °C and 2.9 nM.
The corresponding values for `CNc1ccccc1C(=O)/N=c1\sc(C(C)(C)C)c(C)n1CC1CC1` [compound 200] are 158 to 159 °C and 15.1 nM.
In the same order, the values of `Cc1cc(Cl)ccc1C(=O)/N=c1\sc(C)c(C)n1CC1CC1` [compound 90] are 124 to 125 °C and 6.5 nM.
As to `Cc1cc(Cl)ccc1C(=O)/N=c1\sc(C(C)(C)C)c(C)n1CC1CC1` [compound 242], the melting point lay within 108 to 109 °C. In series [1], the IC50 was determined as 4 nM.
As for `Cc1s/c(=N\C(=O)CC(C)CC(C)(C)C)n(CC2CC2)c1C` (racemic) [compound 99], the melting point lay within 42 to 43 °C. Further, the IC50 in series [1] was 6.5 nM.
Consider `CCn1c(C)c(C(C)(C)C)s/c1=N\C(=O)c1cc(F)c(F)cc1Cl` [compound 159], for which the melting point was 107 to 108 °C. Moreover, in series [1], the IC50 was 8.4 nM.
In the same order, the values of `CCn1c(C)c(C(C)(C)C)s/c1=N\C(=O)c1cc(Br)ccc1F` [compound 154] are 105 to 106 °C and 5.9 nM.
`COCCn1c(C)c(C(C)(C)C)s/c1=N\C(=O)c1cccc(OC(F)(F)C(F)F)c1` [compound 350]: the melting point was in the range of 114 to 116 °C. Besides, in series [1], the half-maximal inhibitory concentration (IC50) worked out at 5.2 nM.
For the compound `COCCn1c(C)c(C(C)(C)C)s/c1=N\C(=O)c1cc(F)c(Cl)cc1Cl` [compound 349], the melting point was in the range of 161 to 163 °C. Also, the IC50 in series [1] amounted to 1.9 nM.
In the same order, the values of `COc1cccc(C(=O)/N=c2\sc(C(C)(C)C)c(C)n2CC2CC2)c1` [compound 194] are 108 to 109 °C and 19.1 nM.
`Cc1c(C(C)(C)C)s/c(=N\C(=O)C2C[C@H]2c2ccccc2)n1CC1CC1` (mixture of isomers) [compound 337] showed a melting point of 110 to 112 °C. The IC50 in series [1] came to 2.8 nM.
`COCCn1c(C)c(C(C)(C)C)s/c1=N\C(=O)c1cccc(Br)c1` [compound 345] gave a melting point of 89 to 91 °C. In addition, the IC50 in series [1] came out at 12.7 nM.
In the same order, the values of `CCc1ccccc1C(=O)/N=c1\sc(C)c(C)n1CC1CC1` [compound 71] are 150 to 152 °C and 5.9 nM.
`Cc1c(C(C)(C)C)s/c(=N\C(=O)c2cc(C(F)(F)F)ccc2OC(C)C)n1CC1CC1` [compound 269] registered a melting point of 106 to 108 °C. In addition, the IC50 in series [1] was 3.6 nM.
On to `CCn1c(C)c(C(C)(C)C)s/c1=N\C(=O)c1cc(I)ccc1F` [compound 157], for which the melting point was in the range of 87 to 89 °C. In addition, in series [1], the IC50 is 12.1 nM.
The corresponding values for `Cn1c(C(C)(C)C)c/c(=N\C(=O)c2cccc(Cl)c2Cl)n1CC1CCCC1` [compound 484] are 168 to 169 °C and 2.7 nM.
The corresponding values for `Cc1c(C(C)(C)C)s/c(=N\C(=O)c2ccc(F)cc2F)n1CC1CC1` [compound 224] are 111 to 112 °C and 13 nM.
The corresponding values for `CCOCCn1c(C)c(C(C)(C)C)s/c1=N\C(=O)c1cccc(C(F)(F)F)c1` [Compound No. 352, 5-t-butyl-3-(2-ethoxyethyl)-4-methyl-2-(3-trifluoromethylbenzoyl)imino-2,3-dihydrothiazole] are 91 to 92 °C and 2.3 nM.
In turn, `Cc1c(C(C)(C)C)s/c(=N\C(=O)c2cc(F)c(F)cc2Cl)n1CC1CC1` [compound 284] gave a melting point of 112 to 114 °C. Moreover, the IC50 in series [1] worked out at 1.2 nM.
With `CCn1c(C)c(C(C)(C)C)s/c1=N\C(=O)c1cc(C(F)(F)F)ccc1OC(F)F` [compound 174], the melting point fell in the range of 95 to 97 °C. Besides, the IC50 in series [1] amounted to 11.7 nM.
Consider `CCOc1ccc(OCC)c(C(=O)/N=c2\sc(C(C)(C)C)c(C)n2CC2CC2)c1` [compound 238], for which the melting point lay within 97 to 99 °C. Further, the IC50 in series [1] came to 4.4 nM.
In the same order, the values of `Cc1c(C(C)(C)C)s/c(=N\C(=O)c2cc(C(F)(F)F)ccc2N(C)C)n1CC1CC1` [compound 277] are 126 to 128 °C and 9 nM.
The corresponding values for `O=C(/N=c1\ccc(F)cn1CC1CC1)c1cccc(C(F)(F)F)c1F` [compound 37] are 89 to 91 °C and 11.3 nM.
In the same order, the values of `Cc1c(C(C)(C)C)s/c(=N\C(=O)c2cccc(OC(F)(F)C(F)F)c2)n1CC1CC1` [compound 198] are 109 to 111 °C and 2.7 nM.
Turning to `Cc1c(C(C)(C)C)s/c(=N\C(=O)c2cc(F)c(Cl)cc2Cl)n1C` [compound 136], the melting point was in the range of 205 to 207 °C. In addition, the IC50 in series [1] was found to be 11.6 nM.
As for `Cc1ccc(C)c(C(=O)/N=c2\sc(C(C)(C)C)c(C)n2CC2CC2)c1` [compound 217], the melting point fell in the range of 106 to 107 °C. The concentration for half-maximal inhibition (IC50) in series [1] was 2.6 nM.
The compound `Cc1c(C(C)(C)C)s/c(=N\C(=O)c2ccc3nonc3c2)n1CC1CC1` [compound 320] displayed a melting point of 139 to 141 °C. Also, the IC50 in series [1] was determined as 6.2 nM.
As to `CCn1c(C)c(C(C)(C)C)s/c1=N\C(=O)c1ccc(C)cc1Br` [compound 163], the melting point lay in the range of 100 to 102 °C. The IC50 in series [1] is 14.9 nM.
In turn, `Cc1c(C(C)(C)C)s/c(=N\C(=O)C2=C(NCCO)C=CC(C(F)(F)F)C2)n1CC1CC1` (stereo not shown) [compound 272] yielded a melting point of 131 to 133 °C. Besides, in series [1], the IC50 worked out at 5 nM.
Compound `Cc1s/c(=N\C(=O)c2cccc(Br)c2)n(CC2CC2)c1C` [compound 77] came in with a melting point of 159 to 160 °C. Besides, the IC50 in series [1] was 19.3 nM.
`Cc1s/c(=N\C(=O)c2cc(F)ccc2C(F)(F)F)n(CC2CC2)c1C` [compound 93] displayed a melting point of 131 to 133 °C. Also, in series [1], the IC50 is 17.6 nM.
The compound `Cc1ccn(CC2CC2)/c(=N/C(=O)c2cccc(C(F)(F)F)c2F)c1` [compound 23] came in with a melting point of 81 to 83 °C. The IC50 in series [1] was determined as 8.9 nM.
In the same order, the values of `CCn1c(C)c(C(C)(C)C)s/c1=N\C(=O)c1ccccc1C(F)(F)F` [compound 151] are 74 to 76 °C and 3.2 nM.
In the same order, the values of `CC(=O)OC(C(=O)/N=c1\sc(C(C)(C)C)c(C)n1CC1CC1)c1ccccc1` (stereo not shown) [compound 341] are 147 to 148 °C and 5.3 nM.
Consider `Cc1ccc(F)c(C(=O)/N=c2\sc(C(C)(C)C)c(C)n2C)c1F` [compound 144], for which the melting point is 140 to 142 °C. Besides, in series [1], the IC50 was 4.3 nM.
`Cc1cccnc1C(=O)/N=c1\sc(C(C)(C)C)c(C)n1CC1CC1` [compound 293] came in with a melting point of 88 to 89 °C. Further, the IC50 in series [1] is 7 nM.
In the same order, the values of `COc1ccc(OC)c(C(=O)/N=c2\sc(C)c(C)n2CC2CC2)c1` [compound 88] are 124 to 126 °C and 17.8 nM.
The corresponding values for `O=C(/N=c1\ccccn1CC1CCC1)c1cccc(C(F)(F)F)c1F` [compound 12] are 93 to 94 °C and 13.3 nM.
The corresponding values for `Cc1s/c(=N\C(=O)c2cc(F)c(Cl)cc2Cl)n(CC2CC2)c1C` [compound 86] are 59 to 60 °C and 6.5 nM.
On to `Cc1c(C(C)(C)C)s/c(=N\C(=O)CCC(F)(F)F)n1CC1CC1` [compound 335], for which the melting point lay in the range of 102 to 103 °C. For the same compound, the IC50 in series [1] was determined as 5.5 nM.
